From publication PMC7883873, “Discovery of New Catalytic Topoisomerase II Inhibitors for Anticancer Therapeutics” (Frontiers in Oncology, 2021)

Columns and labels:
HeLa cells = assay: BrdU incorporation assay; assay type: cell-based; settings: 20 µM, 48 h
Procedure: Cell proliferation rates were measured by using the CellTitre 96 AqueousOne kit (Promega) and bromodeoxyuridine (BrdU) assay kit (Millipore) according to the manufacturer’s protocol as we have described ([51]). Cytotoxicity was evaluated by using the commercial kit (CAT# 8078, ThermoFisher). Culture media was collected and used to measure lactate dehydrogenase (LDH) levels by a colorimetric method following the manufacture’s protocol (ThermoFisher). Cell cycling was assessed by using BrdU incorporation into S-phase DNA by using the APC BrdU flow kit (BD Pharmingen; Franklin Lakes, New Jersey) according to the manufacturer’s protocol. 1 mM of BrdU was added to cells and incubated for 6 h. Cells were incubated with anti-BrdU antibody and stained with 7-AAD before processing the cells for flow cytometry ([52]). Immunoblotting assays followed the standard protocol as we have reported ([51]–[53]).

AR = assay: Probasin- and PSA-luciferase reporter in 293T cells; assay type: cell-based; settings: 0-20 µM
K562 xenografts = assay: K562 xenografts, intra-tumor polymeric paste; assay type: in vivo, nude mice (Nu/Nu); settings: single 30 µl paste, 1% T60 or T633, 0.3% etoposide
Procedure: The polymeric paste was prepared with 50% poly-DL-lactide-coglycolide (PLGA) and 50% PEG 300 (w/w) as we have reported ([57]). […] The density of the paste was determined to be 1.2 g/ml ( ± 3%). One million K562 cells were inoculated subcutaneously in bilateral flanks of nude mice (Nu/Nu). […] Tumor volumes were measured every three days and were calculated by length × width × depth × 0.5236. Mice were euthanized when tumor volumes reached 15% of body weight or weight loss >20% occurred. The remaining mice were euthanized after the control group was euthanized. All animal procedures were under the guidelines of the Canadian Council on Animal Care and were approved by the UBC Animal Care Committee (# A19-0256).

TOP2B [1] = target: T1, TOP2B (Homo sapiens, UniProt Q02880); assay: Cellular thermal shift assay; assay type: cell-based; design: endogenous in cells; host or cells: K562 (the thermal shift text says HeLa, the legend says K562); K562 for chromatin fractionation; settings: 20 µM; vehicle 40C; Hela cells
Procedure: (§1) In the thermal shift assays, cells were treated with vehicle or T60 for 1 h and split into equal aliquots to be heated at 37 to 46°. Protein lyses were collected to perform immunoblotting assays with TOP2 antibodies (Abcam 12318, Santa Cruz sc-13059 & sc-365071). Our chromatin fractionation assays followed the protocol as previously described (Méndez & Stillman, 2000; Wysocka, Reilly, & Herr, 2001). Briefly, K562 cells (4 × 10 ([7]) cells/ml) were collected and re-suspended in buffer A (10 mM HEPES [pH 7.9], 10 mM KCl, 1.5 mM MgCl2, 0.34 M sucrose, 10% glycerol, 1 mM DTT, and protease inhibitor cocktail), before Triton X-100 was added to final concentration at 0.1%. Cells were then incubated on ice for 10 min, and nuclei were collected by centrifugation at speed of 1,300g for 4 min at 4°C. The nuclei were then washed once with buffer A and then incubated with buffer B (3 mM EDTA, 0.2 mM EGTA, 1 mM DTT, and protease inhibitor cocktail [ROCHE]) for 30 min in ice. Insoluble chromatin was collected by centrifugation at 1,700g for 4 min at 4°C, and washed once with buffer B. Chromatin associated proteins were extracted by incubation with Buffer C [500 mM Tris-HCl (pH 6.8), 500 mM NaCl, and protease inhibitor cocktail (ROCHE)] followed by brief sonication. The supernatant was collected to perform immunoblotting assays with TOP2 antibodies as we have described ([51]–[53]).
Target sequence in this assay (Q02880 2-1626 limits assumed): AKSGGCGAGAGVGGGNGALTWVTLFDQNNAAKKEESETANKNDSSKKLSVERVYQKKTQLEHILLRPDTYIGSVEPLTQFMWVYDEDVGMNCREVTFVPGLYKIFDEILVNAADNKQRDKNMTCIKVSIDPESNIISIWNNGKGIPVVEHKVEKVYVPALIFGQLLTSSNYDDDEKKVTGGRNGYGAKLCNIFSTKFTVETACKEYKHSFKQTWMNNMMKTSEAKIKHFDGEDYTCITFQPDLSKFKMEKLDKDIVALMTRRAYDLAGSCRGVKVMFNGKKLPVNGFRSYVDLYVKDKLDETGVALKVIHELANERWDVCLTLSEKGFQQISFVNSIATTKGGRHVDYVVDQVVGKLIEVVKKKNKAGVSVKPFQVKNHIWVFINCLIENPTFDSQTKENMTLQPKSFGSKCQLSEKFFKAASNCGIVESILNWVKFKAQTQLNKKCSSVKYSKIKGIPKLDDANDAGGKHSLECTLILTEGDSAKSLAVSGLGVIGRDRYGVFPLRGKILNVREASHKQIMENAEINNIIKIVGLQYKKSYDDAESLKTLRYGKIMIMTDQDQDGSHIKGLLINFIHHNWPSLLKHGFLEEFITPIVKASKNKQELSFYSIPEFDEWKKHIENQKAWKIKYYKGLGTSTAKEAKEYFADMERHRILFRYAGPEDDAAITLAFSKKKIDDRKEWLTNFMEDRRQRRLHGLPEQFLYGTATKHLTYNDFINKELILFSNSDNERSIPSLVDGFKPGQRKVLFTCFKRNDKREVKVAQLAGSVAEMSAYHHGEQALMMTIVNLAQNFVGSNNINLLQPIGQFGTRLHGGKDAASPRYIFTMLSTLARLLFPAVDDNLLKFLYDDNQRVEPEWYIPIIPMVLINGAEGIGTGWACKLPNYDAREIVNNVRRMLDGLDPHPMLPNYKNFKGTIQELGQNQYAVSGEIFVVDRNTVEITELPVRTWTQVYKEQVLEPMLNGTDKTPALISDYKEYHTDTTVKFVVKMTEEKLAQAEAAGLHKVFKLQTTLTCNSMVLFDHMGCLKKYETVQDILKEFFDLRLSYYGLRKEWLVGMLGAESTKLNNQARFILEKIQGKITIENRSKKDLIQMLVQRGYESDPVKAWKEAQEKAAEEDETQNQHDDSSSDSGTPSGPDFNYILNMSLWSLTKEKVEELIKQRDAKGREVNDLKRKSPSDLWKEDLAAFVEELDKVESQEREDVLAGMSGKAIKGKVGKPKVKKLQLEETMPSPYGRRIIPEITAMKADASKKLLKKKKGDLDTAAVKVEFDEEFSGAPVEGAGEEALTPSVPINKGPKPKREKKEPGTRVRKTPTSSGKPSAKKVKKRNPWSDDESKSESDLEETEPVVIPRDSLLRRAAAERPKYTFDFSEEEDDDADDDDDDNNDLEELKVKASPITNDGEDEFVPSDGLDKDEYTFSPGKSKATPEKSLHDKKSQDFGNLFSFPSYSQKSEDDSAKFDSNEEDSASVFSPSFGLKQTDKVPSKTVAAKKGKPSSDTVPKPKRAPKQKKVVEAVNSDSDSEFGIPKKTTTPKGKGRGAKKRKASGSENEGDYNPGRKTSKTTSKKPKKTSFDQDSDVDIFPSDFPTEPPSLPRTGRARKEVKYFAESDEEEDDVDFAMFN

TOP2A [2] = target: T2, TOP2A (Homo sapiens, UniProt P11388); assay: Cellular thermal shift assay; assay type: cell-based; design: endogenous in cells; host or cells: K562 (the thermal shift text says HeLa, the legend says K562); K562 for chromatin fractionation; settings: 20 µM; vehicle 40C; Hela cells
Procedure: as §1

TOP2B [3] = target: T1, TOP2B; assay: DNA cleavage assay; assay type: biochemical; design: full-length human TOP2A and TOP2B protein (TopoGEN and Inspiralis respectively); purchased Inspiralis HTB205; settings: co-treatment with 200 µM etoposide; 1, 100, 200 µM
Procedure: The reactions were incubated in 37C for 30 min and stopped by adding 2 µl of 10% SDS and 1 µl of 250 mM of EDTA, followed by the addition of 50 µg/ml of proteinase K at 45C for 30 min. The reaction was then resolved by electrophoresis on a 1% agarose gel containing […] ethidium bromide in TAE buffer at 60 V. DNA bands were visualized using a gel imager (Gel Doc™ EZ System) and quantified by using the Image Studio™ Lite Quantification Software.
Target sequence in this assay (Q02880 whole entry): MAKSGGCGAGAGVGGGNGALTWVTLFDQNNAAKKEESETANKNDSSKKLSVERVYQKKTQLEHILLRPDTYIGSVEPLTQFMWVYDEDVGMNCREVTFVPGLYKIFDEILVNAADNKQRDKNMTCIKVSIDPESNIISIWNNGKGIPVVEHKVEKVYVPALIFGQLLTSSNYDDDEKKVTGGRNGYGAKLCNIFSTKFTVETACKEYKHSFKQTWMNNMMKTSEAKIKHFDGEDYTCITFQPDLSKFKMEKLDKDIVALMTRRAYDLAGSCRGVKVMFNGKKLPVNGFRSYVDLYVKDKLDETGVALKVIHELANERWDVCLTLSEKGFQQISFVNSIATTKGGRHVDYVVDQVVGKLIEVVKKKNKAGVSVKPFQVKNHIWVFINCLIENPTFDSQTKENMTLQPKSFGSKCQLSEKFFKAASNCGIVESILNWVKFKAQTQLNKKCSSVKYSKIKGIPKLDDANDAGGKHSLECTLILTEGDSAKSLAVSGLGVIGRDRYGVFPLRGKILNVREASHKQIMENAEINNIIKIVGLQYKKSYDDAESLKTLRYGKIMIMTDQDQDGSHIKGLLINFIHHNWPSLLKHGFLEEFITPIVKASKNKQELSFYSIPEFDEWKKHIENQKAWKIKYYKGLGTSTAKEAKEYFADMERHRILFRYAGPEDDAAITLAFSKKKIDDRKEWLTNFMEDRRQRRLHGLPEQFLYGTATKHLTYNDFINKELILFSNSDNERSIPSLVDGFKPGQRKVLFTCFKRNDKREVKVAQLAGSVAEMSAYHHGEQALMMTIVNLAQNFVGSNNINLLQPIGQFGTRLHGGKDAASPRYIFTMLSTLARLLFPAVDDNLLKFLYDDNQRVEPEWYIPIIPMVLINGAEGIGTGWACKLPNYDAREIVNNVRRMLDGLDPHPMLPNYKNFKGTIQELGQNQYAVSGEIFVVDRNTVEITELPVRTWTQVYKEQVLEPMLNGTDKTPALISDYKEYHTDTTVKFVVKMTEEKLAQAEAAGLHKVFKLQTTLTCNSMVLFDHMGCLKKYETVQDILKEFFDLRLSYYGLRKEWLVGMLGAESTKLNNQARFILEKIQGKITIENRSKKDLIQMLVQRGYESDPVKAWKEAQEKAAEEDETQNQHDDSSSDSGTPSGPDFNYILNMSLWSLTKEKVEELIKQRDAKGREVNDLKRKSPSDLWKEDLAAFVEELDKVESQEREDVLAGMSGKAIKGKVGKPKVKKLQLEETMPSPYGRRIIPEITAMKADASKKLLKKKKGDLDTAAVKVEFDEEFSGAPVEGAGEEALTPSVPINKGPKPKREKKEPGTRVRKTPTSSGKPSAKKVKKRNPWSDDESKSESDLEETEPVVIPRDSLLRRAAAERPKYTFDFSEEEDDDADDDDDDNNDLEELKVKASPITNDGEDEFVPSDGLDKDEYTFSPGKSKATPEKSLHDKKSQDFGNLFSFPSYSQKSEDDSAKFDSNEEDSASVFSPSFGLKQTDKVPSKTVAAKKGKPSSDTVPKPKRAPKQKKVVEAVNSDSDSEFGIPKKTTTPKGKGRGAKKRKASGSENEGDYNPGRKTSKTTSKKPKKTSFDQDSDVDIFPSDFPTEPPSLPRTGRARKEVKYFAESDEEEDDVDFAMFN

TOP2B [4] = target: T1, TOP2B; assay: Chromatin fractionation assay; assay type: cell-based; design: endogenous in cells; host or cells: K562 (the thermal shift text says HeLa, the legend says K562); K562 for chromatin fractionation; settings: K562 cells, 0, 1, 20 µM, 24 hours
Procedure: as §1
Target sequence in this assay (Q02880 2-1626 limits assumed): as the sequence (Q02880 2-1626 limits assumed) above

TOP2A [5] = target: T2, TOP2A; assay: Chromatin fractionation assay; assay type: cell-based; design: endogenous in cells; host or cells: K562 (the thermal shift text says HeLa, the legend says K562); K562 for chromatin fractionation; settings: K562 cells, 0, 1, 20 µM, 24 hours
Procedure: as §1

[6] = system: AR proteins in LNCaP cells; assay: AR nuclear localization, cytoplasmic/nuclear western blotting; assay type: cell-based; settings: 20 µM, 24 h

T2 sequence (P11388 whole entry): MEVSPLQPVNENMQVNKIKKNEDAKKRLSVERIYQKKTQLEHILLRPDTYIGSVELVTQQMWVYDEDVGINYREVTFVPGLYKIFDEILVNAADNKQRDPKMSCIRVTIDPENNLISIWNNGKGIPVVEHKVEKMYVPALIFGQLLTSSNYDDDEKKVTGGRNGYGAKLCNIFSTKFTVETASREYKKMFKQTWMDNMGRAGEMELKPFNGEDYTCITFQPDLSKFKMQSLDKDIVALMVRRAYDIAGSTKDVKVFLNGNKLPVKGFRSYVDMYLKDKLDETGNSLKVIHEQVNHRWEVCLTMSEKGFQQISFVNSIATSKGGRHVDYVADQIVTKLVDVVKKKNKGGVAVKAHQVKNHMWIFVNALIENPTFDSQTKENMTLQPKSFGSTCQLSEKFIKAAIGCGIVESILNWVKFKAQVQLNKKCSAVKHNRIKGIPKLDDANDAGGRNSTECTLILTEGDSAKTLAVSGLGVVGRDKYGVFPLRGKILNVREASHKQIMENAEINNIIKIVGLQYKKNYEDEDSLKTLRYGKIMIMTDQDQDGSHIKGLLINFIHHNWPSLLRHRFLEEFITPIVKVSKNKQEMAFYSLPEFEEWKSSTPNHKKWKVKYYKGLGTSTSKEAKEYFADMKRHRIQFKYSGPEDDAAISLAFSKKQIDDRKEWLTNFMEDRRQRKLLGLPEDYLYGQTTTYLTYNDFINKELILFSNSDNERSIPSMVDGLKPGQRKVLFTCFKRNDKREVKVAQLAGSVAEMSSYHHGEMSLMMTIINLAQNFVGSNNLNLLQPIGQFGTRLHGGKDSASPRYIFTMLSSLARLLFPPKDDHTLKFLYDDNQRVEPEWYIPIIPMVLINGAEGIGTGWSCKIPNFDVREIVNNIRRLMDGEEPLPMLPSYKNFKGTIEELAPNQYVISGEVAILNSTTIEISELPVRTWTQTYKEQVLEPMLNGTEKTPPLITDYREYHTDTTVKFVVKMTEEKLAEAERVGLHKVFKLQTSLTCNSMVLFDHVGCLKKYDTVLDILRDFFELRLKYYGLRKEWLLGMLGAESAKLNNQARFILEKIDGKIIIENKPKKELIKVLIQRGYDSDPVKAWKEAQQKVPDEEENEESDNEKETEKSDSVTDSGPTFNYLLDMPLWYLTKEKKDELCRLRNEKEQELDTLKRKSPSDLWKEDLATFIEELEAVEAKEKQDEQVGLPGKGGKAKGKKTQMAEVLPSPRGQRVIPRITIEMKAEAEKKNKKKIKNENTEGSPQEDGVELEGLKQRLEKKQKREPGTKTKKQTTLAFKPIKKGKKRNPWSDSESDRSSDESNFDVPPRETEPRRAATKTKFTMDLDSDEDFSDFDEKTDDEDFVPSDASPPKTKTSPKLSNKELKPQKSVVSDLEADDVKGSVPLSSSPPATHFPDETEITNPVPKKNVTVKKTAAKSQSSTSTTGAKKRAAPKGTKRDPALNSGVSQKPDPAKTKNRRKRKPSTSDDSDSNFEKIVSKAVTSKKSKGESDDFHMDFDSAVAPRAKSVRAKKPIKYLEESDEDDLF

## O=C(Nc1ccc(Nc2ccccc2)cc1)c1ccc[nH]c1=S [T60]
HeLa cells
  DNA replication (BrdU incorporation): reduced DNA replication
AR
  Luciferase activities driven by probasin and PSA promoters, AR: inhibited luciferase activities
K562 xenografts
  Tumor growth at the end of two weeks: strongly inhibit tumor growth comparable to etoposide
TOP2B [1]
  Temperature up to which TOP2B protein is stabilized: up to 43 C
TOP2A [2]
  Temperature up to which TOP2A protein is stabilized: up to 43 C
TOP2B [3]
  Prevention of etoposide-induced DNA cleavage, TOP2B: prevented
TOP2B [4]
  TOP2B association with chromatin: reduced
TOP2A [5]
  TOP2A association with chromatin: reduced
[6]
  Nuclear localization of AR proteins, LNCaP: reduced nuclear localization
